One may read the ED50 as the midpoint of the dose-response relation. One may read the NOAEL as the highest dose or exposure tested at which no adverse effect was seen.

The text below walks through data of patent US4631293A, “(-) Campholenic acid ester of salicylic acid and pharmaceutically acceptable salts thereof having mucosecretolytic, anti-inflammatory, analgesic, and antipyretic activity” (Camillo Corvi S.p.A., priority 1984, dated 1986).

Entries after “also recorded” stand apart in the source; their conditions may differ. Like-named read-outs stand apart in the source and are kept apart here.

One series deals with bronchial secretion. Nature of the series: Bronchosecretagogue activity: quantitative evaluation of the bronchial secretion of rabbit (Scuri et al.). In kind it is in vivo, rabbit (adult male brown). The following applies: oral. An excerpt:
Method of quantitative evaluation of the bronchial secretion of rabbit according to Scuri R. et al. Boll. Chim. Farm. […] Adult male brown rabbits (2.8-3.5 kg of body weight) are employed, to which a T shaped tracheal cannula, by surgical operation, as described in the mentioned bibliographic reference, is applied. To the cannula, a container for periodical collection of the bronchial secretion is applied. The study of mucoproduction, started at the fourth day after the operation, is divided into two periods, each of 4 hours, for collecting and measuring the mucus secreted. The action of the drug under examination, is tested by administering the same orally at the begining of the second mucus collection period and evaluating the percent increase of mucus production (as measured gravimetrically in the second period in comparison with the first period).

In series [1] the test system is carrageenin induced oedema. Kind of series: Anti-oedemigenous activity: carrageenin induced oedema (Winter et al.). To be noted: for ED40: 3 h, read-out: Anti-oedemigenous activity ED40. In kind it is in vivo, rat (female albine Wistar). How it is done:
Method of carrageenin induced oedema according to Winter C. A. et al--Proc. Soc. […] Female albine Wistar rats (120-160 g of body weight) are utilized. The drug under test is administered orally one hour before injection into the right hind paw of a carrageenin water suspension (1% volume injected ml 0.05).

The next series has as its system pleural exudate. Nature of the series: Anti-exudative activity: quantitative evaluation of the pleural exudate of a rat (carrageenin pleuritis). In kind it is in vivo, rat (female albine Wistar). The following applies: for ED50: 6 h, read-out: Anti-exudative activity ED50. How it is done: Method of the quantitative evaluation of the pleural exudate of a rat according to Vinegar E. et al.-Proc. Soc. […] Female albine Wistar rats (average weight 160 g), fasting from the evening preceding the test, are used. The experimental pleuritis is induced by injecting into the pleural cavity, under ethereal anesthesia, 0.15 ml of a 1% carrageenin solution (Prodotti Gianni-Milano). The test drug is administered orally, half an hour before the carrageenin. Six hours after the carrageenin injection, the animals are sacrificed and volumetric measurement of the pleural exudate, as withdrawn by a syringe, is performed.

In series [2] the test system is phenylquinone abdominal contractions. Kind of series: Analgesic activity: phenylquinone method (abdominal contractions). In kind it is in vivo, mouse (female Swiss albine). The following applies: for ED50: read-out: Analgesic activity ED50; for analgesic activity (in words): oral, comparison with acetylsalicylic acid. How it is done:
Female Swiss albine mice (20-25 g), fasting for 2 hours, are utilized.
The test drug is administered orally 30 minutes before the endoperitoneal injection of phenylquinone (0.08 mg/mouse).
The characteristic abdominal contractions are counted individually during a 20 minutes period.

For a further series, the system named is yeast induced pyrexia. Kind of series: Antipyretic activity: yeast induced pyrexia in the rat. In kind it is in vivo, rat (female Wistar albine). The following applies: for ED50: oral simultaneously with yeast, Temperature Index. How it is done: Method of yeast induced pyrexia in the rat. Female Wistar albine rats, weighing 100-140 g, are utilized. The animals having a basal rectal temperature from 36° to 37° C. are selected. The testing substances are administered orally simultaneously with the pyretic agent (dry brewers' yeast suspended in water at the 20% concentration, administered volume 15 ml/kg, subcutaneously) to groups of 5 animals per dose. After 4, 5, 6, 7 and 24 hours from the treatment, the rectal temperature of the animals is recorded by an Ellab RM6 probe, connected to an Ellab-mod. TE-3 thermometer. The activity of the drugs is evaluated by utilizing a Temperature Index, which is given by the algebraic sum of the differences in the rectal temperature between the measure values at different times and the basal value;

In series [3] the test system is stomach. Kind of series: Gastric tolerability: gastric ulcerogenesys by repeated drug administrations. Type of series: in vivo, rat (female Wistar albine). To be noted: rat. How it is done:
(§1) Method of gastric ulcerogenesys by repeated drug administrations.
(§2) Fed female Wistar albine rats (140-160 g of initial body weight) are used.
(§3) The drug under test is administered orally, daily, for five days. At the end of the test the stomach of the rats is withdrawn, it is dissected along the lesser curvature, washed and observed in order to disclose the presence of either gastric lesions or manifest submucosa hemorrhages.
(§4) The "ulcerogenic dose 50" (UD50) is defined as the daily dose able to induce lesions or hemorrhages in 50% of the animals treated.

The test system of series [4] is mouse. The following applies: literature datum, Hart E R J. Pharm. Exp. Ther. 89 205, 1947; 20160 min; cited from earlier work.
Series [5] deals with stomach. To be noted: Arrigono-Martelli, Meth. Find. Exp. Clin. Pharmacol. 1, 157, 1979; 7200 min; cited from earlier work.
Series [6] can be described thus: Lethal dose 50 (LD50) in the mouse after a single oral administration. The following applies: in vivo, single administration, 14th day mortality. Type of series: in vivo. How it is done:
(§5) Method for studying the lethal dose 50(LD50) in the mouse after a single administration.
(§6) Groups of 10 Swiss albine, female, adult (20-22 g of body weight) mice, fasting from the evening preceding the test, are treated orally with various doses of the test drug suspended in hydroxyethylcellulose (0.50% weight/volume).
(§7) Thereafter, the animals are fed again.
(§8) LD50 is calculated by the method of Litchfield J. T. and Wilcoxon F. (J. Pharmacol. 96, 99-113, 1949) by utilizing the mortality data as obtained on the 14th day after the test drug administration.

For series [7], the system named is mouse. The description is as above. In kind it is in vivo. To be noted: in comparison with acetylsalicylic acid. How it is done:
as §5, §6, §7, §8

Series [8] can be described thus: Gastric tolerability: gastric ulcerogenesys by repeated drug administrations. Type of series: in vivo, rat (female Wistar albine). To be noted: rat, in vivo, po. How it is done:
as §1, §2, §3, §4

For the compound `CC(=O)Oc1ccccc1C(=O)O` [acetylsalicylic acid, reference compound], in the series with bronchial secretion (percent increase of mucus production), the “Bronchosecretagogue activity ED50” value was “inactive”. In addition, the ED40 in series [1] (Rattus norvegicus, po) was 400 mg/kg. The ED50 amounted to 215 mg/kg in the series on pleural exudate (Rattus norvegicus, po); 70 mg/kg in [2] (Mus musculus, po); 157 mg/kg in the series on yeast induced pyrexia. Also, the “analgesic activity (in words)” value in [2] (mouse) is “good analgesic activity in the mouse”. Moreover, in the series on stomach [3] (oral, acetylsalicylic acid dose versus CO/1473 dose), the “gastro-damaging dose, times lower than that of CO/1473” value came to 16 times lower. In addition, the LD50 with mouse [4] is 1100 mg/kg os. The “UD50 (ulcerogenic dose 50)” value with stomach [5] is recorded as 48 mg/kg os.
Take `CC1=CCC(CC(=O)Oc2ccccc2C(=O)O)C1(C)C` (single isomer, unassigned) [CO/1473, 2-(2,2,3-trimethyl-3-cyclopentene-1-acetoxy)benzoic acid]: the LD50 at 336 h in [6] is 913 mg/kg. The “acute toxicity (in words)” value in the series with mouse [7] is listed as “low acute toxicity”. Moreover, the median effective dose (ED50) was found to be 60 mg/kg in the series with bronchial secretion (Oryctolagus cuniculus, 4 h, percent increase of mucus production); 320 mg/kg in the series on pleural exudate (rat, oral half an hour before carrageenin, exudate volume after six hours); 52 mg/kg in series [2] (mouse, oral 30 minutes before phenylquinone); 400 mg/kg in the series with yeast induced pyrexia. In the series with bronchial secretion, the “bronchosecretagogue activity (in words)” value is listed as “has bronchosecretagogue activity in the rabbit”. In series [1] (rat, oral one hour before carrageenin, paw volume after three hours), the ED40 is 400 mg/kg. Further, in series [1] (rat, oral, first test of Table 3), the “anti-oedemigenous activity in comparison with acetylsalicylic acid (in words)” value is on record as “superior in the first test”. In the series with pleural exudate (rat, oral, second test of Table 3), the “anti-exudative activity in comparison with acetylsalicylic acid (in words)” value is reported as “slightly inferior in the second”. Moreover, the “analgesic activity (in words)” value in series [2] (mouse) was “slightly more active than acetylsalicylic acid”. In addition, the “antipyretic activity (in words)” value in the series with yeast induced pyrexia (oral, comparison with acetylsalicylic acid) is given as “interesting antipyretic activity in the rat, though lower than the one of acetylsalicylic acid”. Further, the NOAEL at 120 h in series [8] came to 800 mg/kg. In addition, in the series with stomach [3] (up to the maximum dose of 800 mg/kg os/die for 5 days, listed as compound of the invention, 800 mg/kg), the “gastro-damaging effect (in words)” value is on record as “does not show any gastro-damaging effect; also recorded: very good gastric tolerability”.
